Test results: patent publication US20240091324A1, “GASTROINTESTINAL HEALTH COMPOSITION” (priority 2019, published 2024)

Columns and labels:
TNBS colitis [1] = experiment: Histological scoring of colitis in colon sections post treatment (Example 14); type: in vivo, C56/BL/6 mice; conditions: TNBS colitis mice, 2 mg/kg prednisolone
Excerpt: Colitis was induced and treated C56/BL/6 mice from examples 11 and 12 were euthanised post treatment and the colons sectioned for histopathological analysis. Each bar represents the mean histopathology score for the treatment groups. Values of the number of animals, means, standard deviations and statistical significance relative to placebo are shown in parentheses.
In this example, the colon was fixed, stained and sectioned before being assessed by microscopy in a blinded manner. Colons were examined not only for active disease but evidence of recovery from disease and scored according to the following criteria. Scoring was performed in triplicate blinded to the scorer with a maximum score of 3 in each of 6 categories.
• Hypervascularization (opening of blood vessels) • Presence of mononuclear cells (architecture also disappear) • Epithelial hyperplasia (elongated crypt and villi) • Epithelial injury (loss of epithelial continuity) • Presence of neutrophils • Lymphoid aggregates (scored 0-2) 0,1-2, >2
Data were collated and analysed by student t test for significance against placebo control.

TNBS colitis [2] = experiment: TNBS colitis mouse model with and without prednisolone, change in endoscopic score day 3 to day 11 (Example 12); type: in vivo, C56/BL/6 mice
Description: Colitis was induced in C56/BL/6 mice and 3 days after disease induction daily treatments commenced.
Mice were induced with colitis by administering TNBS in the same manner as example 11. After three days the lesions were scored by endoscopy and the animals treated with i). 150 mg/kg bromelain in water, ii) 150 mg bromelain and rectally administered threonine/sodium butyrate/vitamin D3, iii). 2 mg/kg oral prednisolone or iv). 150 mg bromelain and rectally administered threonine/sodium butyrate/vitamin D3 plus 2 mg/kg oral prednisolone. Endoscopic scores were measured at day 11 and the change in endoscopic score between day 3 and day 11 calculated (FIG. 16).
Groups are i) placebo, ii) 150 mg bromelain in water orally, iii) 150 mg bromelain & 15 mg/kg menthol orally plus GaRP rectally, iv) 150 mg bromelain & 15 mg/kg menthol orally plus GaRP and 2 mg/kg prednisolone rectally, v) 2 mg/kg prednisolone rectally, and vi) GaRP rectally. GaRP is sodium butyrate 185 mg/kg, threonine 280 mg/kg and Vitamin D3 3.84 micrograms per kg. […] The threonine, sodium butyrate and vitamin D3 were formulated and administered as a rectal gavage at the top of the colon to simulate a formulation which releases in the colon; i.e., to achieve administration to the lower intestine.

C[C@]12C=CC(=O)C=C1CC[C@@H]1[C@@H]2[C@@H](O)C[C@@]2(C)[C@H]1CC[C@]2(O)C(=O)CO [prednisolone, Prednisolone]
Histological score of colitis, Mean (TNBS colitis [1]): 3.5
Mean reduction in endoscopic score (TNBS colitis [2]; TNBS colitis mice, change day 3 to day 11, 2 mg/kg prednisolone): 4.25
mean improvement in endoscopic score at day 11 (TNBS colitis [2]; daily treatment from day 3, bromelain 150 mg/kg, menthol 15 mg/kg, prednisolone 2 mg/kg where present, GaRP rectally): 4.25
